Results published in ChEMBL document CHEMBL5725601, “Tetrahydroisoquinoline derivatives useful as inhibitors of diacylglyceride O-acyltransferase 2” (2018).

Target: T1, Diacylglycerol O-acyltransferase 2 (Homo sapiens, UniProt Q96PD7)
T1 sequence (Q96PD7 whole entry): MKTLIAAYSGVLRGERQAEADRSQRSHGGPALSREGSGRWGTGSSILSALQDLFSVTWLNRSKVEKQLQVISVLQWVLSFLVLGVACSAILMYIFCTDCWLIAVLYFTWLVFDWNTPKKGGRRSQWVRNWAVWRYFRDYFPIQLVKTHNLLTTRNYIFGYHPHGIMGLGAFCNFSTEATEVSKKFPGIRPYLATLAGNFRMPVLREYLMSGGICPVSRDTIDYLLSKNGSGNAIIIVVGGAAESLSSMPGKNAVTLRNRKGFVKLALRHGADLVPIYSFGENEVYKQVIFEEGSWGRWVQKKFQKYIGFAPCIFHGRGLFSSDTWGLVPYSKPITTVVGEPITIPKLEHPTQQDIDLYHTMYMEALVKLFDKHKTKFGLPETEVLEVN
Experiment: Enzymatic Activity Assay: DGAT2 activity was determined by measuring the amount of enzymatic product triolein (1,2,3-Tri(cis-9-octadecenoyl)glycerol) using the membrane prep mentioned above. The assay was carried out in deep well 384 plates in a final volume of 40 μL at room temperature. The assay mixture contained the following: assay buffer (100 mM Tris·Cl, pH 7.0, 20 mM MgCl2, 5% ethanol), 25 μM of diolein, 10 μM of oleoyl-CoA and 10 ng/μL of DGAT2 membrane.

IC50 [nM]	SMILES
588	CC(C)(C)NC(=O)N1CCc2c(-c3cccc(C(F)(F)F)c3)ccc(C(=O)NCc3nc(-c4ccccn4)no3)c2C1
326	CC(C)(C)NC(=O)N1CCc2c(-c3cccc(C(F)(F)F)c3)ccc(C(=O)NCc3noc(-c4ccccc4)n3)c2C1
